Values of other authors as cited in patent EP0214616A2, “Acetylenic prostaglandins” (G.D. Searle & Co., priority 1985, dated 1987).

Test system: gastric secretion
Details: at the highest dose tested (100ug/kg)

For `CCCCC(C)(O)C/C=C/[C@H]1[C@H](O)CC(=O)[C@@H]1CCC#CCCC(=O)OC` (mixture of isomers) [Example C90001], the gastric antisecretory activity is listed as “devoid of gastric antisecretory activity”.
